US20210221774A1, “TREATMENT OF POST-TRAUMATIC SYNDROME DISORDER” (Aché Laboratórios Farmacêuticos S.A, priority 2017, published 2021)

Tested on: c-fos expression in key brain regions involved in stress response
Experiment: Single Prolonged Stress (SPS) model, count of c-fos positive neurons in brain regions
Format: in vivo
Conditions: mice, IA1-29 30 mg/kg p.o. given before SPS, locus ceruleus, amygdala, hypothalamus, bed nuclei stria terminalis (FIG. 1)
Procedure: The quinazolinone of the invention was named IA1-29 and was tested in an in vivo model that mimics the activation that occurs in the brain after a prolonged stress stimulus.
The effects of the administration of IA1-29 at 30 mg/kg p.o. in brain activation were assessed in mice subjected to the Single Prolonged Stress (SPS) model. The SPS protocol is a well established model of PTSD that combines multiple stressors (physical restraint, forced swim, predator scent and ether anesthesia (Borghans & Homberg, 2015; Yamamoto et al., 2009)). The activation of specific brain regions was determined by counting the number of neurons expressing the c-fos protein, an immediate early gene product that can be used as a marker of cell activation in individual neurons. […] The count of c-fos positive neurons in some of these regions can be visualized in FIG. 1. The experiment comprised three different groups (n=10 per group): mice not subjected to the SPS protocol (Sham), mice subjected to the SPS model (SPS) and animals submitted to the SPS protocol but pre-treated with IA1-29 at 30 mg/kg (IA1-29+SPS). The brain regions exemplified in FIG. 1 are locus ceruleus (FIG. 1A), amygdala (FIG. 1B), hypothalamus (FIG. 1C) and bed nuclei stria terminalis (FIG. 1D). […]

## COc1ccccc1N1CCN(CCn2cnc3ccccc3c2=O)CC1 [IA1-29, 3-(2-(4-(2-methoxyphenyl)piperazine-1-yl)ethyl) quinazoline-4(3H)-one]
  SPS-induced c-fos expression in key brain regions involved in stress response (count of c-fos positive neurons): suppressed
